Patent publication US10604481B2, “(Thio, oxo and seleno) semicarbazone complexes with zinc and their use for treating cancer” (RUTGERS, THE STATE UNIVERSITY OF NEW JERSEY, priority 2015, dated 2020)

Tests used:
[1] = Liposome import assay (RhodZin-3 in DOPC liposomes); settings: for transport of Zn2+ into liposomes (rate of RZ-3 fluorescence increase): external [Zn2+]free 10 μM
Protocol: Zn^2+ alone was unable to permeate the liposomal membrane as indicated by the lack of RZ-3 fluorescence increase.
It can function as an ionophore in conditions of the liposome experiments where external [Zn^2+]free was 10 μM. However, in complete media containing 10% fetal bovine serum (FBS), Zn^2+-binding proteins from the serum (e.g. albumin) necessarily compete for Zn^2+ with any putative MC, making the effective [Zn^2+]free much lower than [Zn^2+]total.
DOPC-liposomes were prepared by film rehydration and extrusion followed by gel filtration and diluted to an OD600=0.06 in buffer. The size distribution of the liposomes was determined by dynamic light scattering (DLS) using a Malvern Zetasizer Nano ZS. Fluorescence measurements were taken on a Horiba Fluoromax-4 spectrofluorimeter in a 5×5 mm quartz cuvette with λex/λem=550/572 nm for RZ-3 and 490/515 nm for calcein. Initial Zn^2+ import/export was quantified by fitting the first 10-30 s of data after each treatment to a line and converted to units of flux using the following Eqn 1:
[formula] where Ji is the initial flux, ΔF/Δt is the slope of the fit line, Fmax is RZ-3 fluorescence in the presence of saturating Zn^2+ and 1% TritonX-100, Fmin is RZ-3 fluorescence in the presence of excess EDTA and 1% TritonX-100, [RZ3] is the concentration of encapsulated RZ-3, and SA/Vol is the surface area to volume ratio calculated assuming hollow spheres of the mean diameter determined by DLS. Intracellular [Zn^2+]free Imaging

[2] = test system: HEK293 (non-cancer, p53-WT) cells; assay: Intracellular [Zn2+]free imaging with FluoZin-3-AM, HEK293; format: cell-based; settings: for increase of intracellular [Zn2+]free (FZ3 fluorescence): HEK293, complete media
Protocol: To minimize the potential for Zn^2+ contamination and contributions from poorly defined elements in complete media (e.g. FBS), cells were treated and imaged in Ca^2+ and Mg^2+-free Earle's Balanced Salt Solution supplemented with 10 mM HEPES pH 7.4 (EBSS/H (−)Ca/Mg). Excess ZnCl2 with the Zn^2+ ionophore pyrithione (PYR) was used as a positive control. Excess membrane-permeable Zn^2+ chelator N,N,N′,N′-tetrakis(2-pyridylmethyl)ethane-1,2-diamine (TPEN) was used as a negative control.
To normalize for differential dye loading, cells were then sequentially treated with excess PYR/ZnCl2, imaged, treated with TPEN, and imaged again. PYR/ZnCl2 and TPEN served to saturate and apoize the intracellular FZ3, respectively.
TOV112D or HEK293 cells (40,000 cells/well) were plated on either 8-well BD Falcon chambered culture slides (Corning Life Sciences) or 8-chambered #1.5 Nunc Lab-Tek II chambered coverglasses (Thermo Scientific) treated with poly-L-lysine. After 48 h, cells were washed 2×5 m in serum-free media and incubated with 1 μM FZ3-AM for 40 m at 37° C. Cells were then washed 2×5 m in either EBSS/H (−)Ca/Mg or phenol-red free DMEM+10% FBS containing the indicated treatments for 20 m before imaging. For nuclear colocalization, 1 μg/mL Hoechst 33342 was also included. Cells were imaged using a Zeiss LSM510 META NLO confocal microscope equipped with 37° C. environmental control chamber. FZ3 and Hoechst 33342 were excited at 488 nm (argon laser) and 790 nm (Chameleon Ti:sapphire laser), respectively. To determine the kinetics of fluorescence change, each background-subtracted image in the time-lapse series was integrated in ImageJ and normalized to the integrated fluorescence of the first frame after treatment. For quantification of intracellular [Zn^2+]free, each cell was analyzed in the treated, 50 μM PYR/ZnCl2 (1:1), and 100 μM TPEN images by taking the mean fluorescence of an ROI inside the cell subtracted by an ROI immediately outside the cell measured in ImageJ. The [Zn^2+]free for each cell was then calculated by Eqn 2:
[formula] […] To minimize the effects of outliers the lowest and highest 5% of cells in each series were rejected, and the remaining values averaged to give the value from that experiment. The number of cells analyzed in each trial ranged from 54-163. For nuclear colocalization, treated, PYR/ZnCl2, and TPEN treated images costained with Hoechst 33342 were aligned and each pixel subjected to Eqn. 2 in MATLAB (MathWorks).

[3] = Mouse survival, daily IP administration (Example 13); format: in vivo; settings: mice, ZN1 5.6 mg/kg vs ZMC1 5 mg/kg IP daily, FIG. 5
H460 (p53-WT) = assay: Three day cell growth inhibition assay, H460; format: cell-based, human; settings: H460 (p53 wildtype), FIG. 2
H1299 (p53-null) = assay: Three day cell growth inhibition assay, H1299; format: cell-based, human; settings: FIG. 2

| Molecule | transport of Zn2+ into liposomes (rate of RZ-3 fluorescence increase) [1] | increase of intracellular [Zn2+]free (FZ3 fluorescence) [2] | potency in vivo (survival) relative to monomer ZMC1 [3] | cell growth inhibition (cell killing) (H460 (p53-WT)) | Zn2+ export from liposomes (RZ-3 fluorescence) ([1]; excess EDTA outside the liposomes) | t1/2 of intracellular [Zn2+]free increase ([2]; HEK293, ZMC1 and ZnCl2, EBSS/H (−)Ca/Mg, mean±SD, n=4) [min] | cell growth inhibition (cell killing) (H1299 (p53-null)) |
| --- | --- | --- | --- | --- | --- | --- | --- |
| O=C(O)CN(CC(=O)O)CC(=O)O [NTA, reference compound] | did not | did not | – | – | – | – | – |
| C/C(=N\NC(=O)N1CCC1)c1ccccn1 [Compound 10, (E)-N′-(1-(pyridin-2-yl)ethylidene)azetidine-1-carbohydrazide] | shuttled Zn^2+ into the liposomes | did not | – | – | – | – | – |
| [Zn(ZMC1)2] [Compound 12] | – | – | greater potency | – | – | – | – |
| C/C(=N\NC(=S)N1CCC1)c1ccccn1 [Compound 6, (E)-N′-(1-(pyridin-2-yl)ethylidene)azetidine-1-carbothiohydrazide] | dose-dependent increase | increased intracellular [Zn^2+]free | – | undisturbed | time dependent decrease in RZ-3 fluorescence | 2.07 ± 0.333 | undisturbed |
